# Counter-ions that a name gives are not always drawn.
# How the values were obtained:
# [1] = target: Adrenergic Receptor β1 (ADRB1) (Homo sapiens, UniProt P08588); experiment: cAMP secondary messenger assay, agonist format; format: cell-based; conditions: read-out: EC50 (μM) Agonist/Opener
# [2] = target: T1, Dopamine Receptor D2 (DRD2S) (Homo sapiens, UniProt P14416); experiment: cAMP secondary messenger assay, antagonist format; format: cell-based; conditions: read-out: IC50 (μM) Antag./Blocker/Inhibitor
# T1 sequence (P14416 1-414 isoform P14416-2): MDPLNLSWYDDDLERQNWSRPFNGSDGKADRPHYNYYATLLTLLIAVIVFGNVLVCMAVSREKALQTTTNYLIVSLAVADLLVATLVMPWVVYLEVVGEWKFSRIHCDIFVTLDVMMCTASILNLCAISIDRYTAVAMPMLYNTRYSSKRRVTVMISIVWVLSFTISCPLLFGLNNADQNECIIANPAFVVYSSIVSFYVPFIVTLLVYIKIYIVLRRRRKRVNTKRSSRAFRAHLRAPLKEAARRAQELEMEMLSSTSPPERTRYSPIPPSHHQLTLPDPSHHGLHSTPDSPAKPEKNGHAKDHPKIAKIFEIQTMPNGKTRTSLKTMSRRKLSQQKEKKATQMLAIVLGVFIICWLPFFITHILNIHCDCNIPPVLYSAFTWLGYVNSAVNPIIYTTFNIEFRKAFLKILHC
# [3] = target: Muscarinic acetylcholine Receptor M2 (CHRM2) (Homo sapiens, UniProt P08172); experiment: cAMP secondary messenger assay, agonist format; format: cell-based; conditions: read-out: EC50 (μM) Agonist/Opener
# [4] = target: T2, 5-Hydroxytryptamine (Serotonin) Receptor 3A (5-HT3A) (Homo sapiens, UniProt P46098); experiment: Ion channel assay, opener format; format: cell-based; conditions: read-out: EC50 (μM) Agonist/Opener
# T2 construct: expressed in transfected cells
# [5] = target: T3, KvLQT1/minK (Homo sapiens, UniProt P51787); experiment: Ion channel assay, blocker format; format: cell-based; conditions: read-out: IC50 (μM) Antag./Blocker/Inhibitor
# T3 sequence (P51787 whole entry): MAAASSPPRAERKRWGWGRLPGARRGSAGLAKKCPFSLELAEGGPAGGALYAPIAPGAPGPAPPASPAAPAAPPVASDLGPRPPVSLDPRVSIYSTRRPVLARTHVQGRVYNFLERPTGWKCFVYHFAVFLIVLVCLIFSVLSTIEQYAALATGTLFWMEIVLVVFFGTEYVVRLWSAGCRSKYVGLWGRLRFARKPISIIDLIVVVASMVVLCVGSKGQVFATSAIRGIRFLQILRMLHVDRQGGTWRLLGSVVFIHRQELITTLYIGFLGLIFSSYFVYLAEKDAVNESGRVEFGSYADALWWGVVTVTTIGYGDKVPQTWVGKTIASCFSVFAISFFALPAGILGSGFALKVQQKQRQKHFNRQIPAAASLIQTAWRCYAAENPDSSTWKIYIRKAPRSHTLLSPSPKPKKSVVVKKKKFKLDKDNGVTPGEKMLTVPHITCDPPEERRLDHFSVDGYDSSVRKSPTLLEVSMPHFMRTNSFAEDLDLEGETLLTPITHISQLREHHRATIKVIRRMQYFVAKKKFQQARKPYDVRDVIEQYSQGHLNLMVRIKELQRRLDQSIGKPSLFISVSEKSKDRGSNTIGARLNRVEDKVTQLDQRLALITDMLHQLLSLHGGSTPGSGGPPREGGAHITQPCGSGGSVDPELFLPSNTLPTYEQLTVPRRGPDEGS
# [6] = target: T4, Histamine Receptor H2 (HRH2) (Homo sapiens, UniProt P25021); experiment: cAMP secondary messenger assay, agonist format; format: cell-based; conditions: read-out: EC50 (μM) Agonist/Opener
# T4 sequence (P25021 whole entry): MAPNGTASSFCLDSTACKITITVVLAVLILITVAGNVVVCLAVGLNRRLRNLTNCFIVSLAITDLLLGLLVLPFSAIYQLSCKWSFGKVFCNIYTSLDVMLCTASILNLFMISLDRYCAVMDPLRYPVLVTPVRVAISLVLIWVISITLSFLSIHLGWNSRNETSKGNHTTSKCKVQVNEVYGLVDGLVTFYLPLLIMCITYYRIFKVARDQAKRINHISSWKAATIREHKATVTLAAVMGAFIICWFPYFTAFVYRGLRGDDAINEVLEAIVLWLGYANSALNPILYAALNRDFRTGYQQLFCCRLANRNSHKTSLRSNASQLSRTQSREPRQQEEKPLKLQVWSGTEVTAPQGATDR
# [7] = target: T5, Dopamine Receptor D1 (DRD1) (Homo sapiens, UniProt P21728); experiment: cAMP secondary messenger assay, antagonist format; format: cell-based; conditions: read-out: IC50 (μM) Antag./Blocker/Inhibitor
# T5 sequence (P21728 whole entry): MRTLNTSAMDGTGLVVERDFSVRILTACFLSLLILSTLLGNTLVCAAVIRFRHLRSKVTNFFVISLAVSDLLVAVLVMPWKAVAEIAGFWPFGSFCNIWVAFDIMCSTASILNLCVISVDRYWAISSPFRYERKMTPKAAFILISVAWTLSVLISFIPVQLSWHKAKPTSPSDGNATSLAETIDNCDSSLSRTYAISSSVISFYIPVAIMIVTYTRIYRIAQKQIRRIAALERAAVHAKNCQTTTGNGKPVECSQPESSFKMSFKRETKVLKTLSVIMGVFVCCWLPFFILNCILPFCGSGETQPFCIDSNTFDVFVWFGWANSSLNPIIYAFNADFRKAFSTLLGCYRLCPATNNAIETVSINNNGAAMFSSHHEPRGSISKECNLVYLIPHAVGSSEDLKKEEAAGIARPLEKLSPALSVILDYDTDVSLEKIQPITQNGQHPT
# [8] = target: Arginine Vasopressin Receptor 1A (AVPR1A) (Homo sapiens, UniProt P37288); experiment: Calcium flux secondary messenger assay, agonist format; format: cell-based; conditions: read-out: EC50 (μM) Agonist/Opener
# [9] = target: T6, Adrenergic Receptor α1A (ADRA1A) (Homo sapiens, UniProt P35348); experiment: Calcium flux secondary messenger assay, antagonist format; format: cell-based; conditions: read-out: IC50 (μM) Antag./Blocker/Inhibitor
# T6 sequence (P35348 whole entry): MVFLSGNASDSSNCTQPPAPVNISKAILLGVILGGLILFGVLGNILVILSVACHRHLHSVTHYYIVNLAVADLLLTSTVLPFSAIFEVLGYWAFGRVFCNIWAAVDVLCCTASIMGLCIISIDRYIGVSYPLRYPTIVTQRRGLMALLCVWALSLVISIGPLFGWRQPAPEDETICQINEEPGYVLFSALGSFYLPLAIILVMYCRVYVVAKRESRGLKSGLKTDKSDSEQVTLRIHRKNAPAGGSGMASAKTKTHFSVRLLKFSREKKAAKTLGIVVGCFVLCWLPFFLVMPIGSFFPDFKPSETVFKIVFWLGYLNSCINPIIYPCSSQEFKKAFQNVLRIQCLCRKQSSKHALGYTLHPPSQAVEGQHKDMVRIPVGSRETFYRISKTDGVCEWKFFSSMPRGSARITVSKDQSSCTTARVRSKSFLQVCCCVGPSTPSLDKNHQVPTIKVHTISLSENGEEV
# [10] = target: T7, Muscarinic acetylcholine Receptor M1 (CHRM1) (Homo sapiens, UniProt P11229); experiment: cell-based; conditions: Calcium Flux, antagonist, read-out: IC50 (μM) Antag./Blocker/Inhibitor
# T7 sequence (P11229 whole entry): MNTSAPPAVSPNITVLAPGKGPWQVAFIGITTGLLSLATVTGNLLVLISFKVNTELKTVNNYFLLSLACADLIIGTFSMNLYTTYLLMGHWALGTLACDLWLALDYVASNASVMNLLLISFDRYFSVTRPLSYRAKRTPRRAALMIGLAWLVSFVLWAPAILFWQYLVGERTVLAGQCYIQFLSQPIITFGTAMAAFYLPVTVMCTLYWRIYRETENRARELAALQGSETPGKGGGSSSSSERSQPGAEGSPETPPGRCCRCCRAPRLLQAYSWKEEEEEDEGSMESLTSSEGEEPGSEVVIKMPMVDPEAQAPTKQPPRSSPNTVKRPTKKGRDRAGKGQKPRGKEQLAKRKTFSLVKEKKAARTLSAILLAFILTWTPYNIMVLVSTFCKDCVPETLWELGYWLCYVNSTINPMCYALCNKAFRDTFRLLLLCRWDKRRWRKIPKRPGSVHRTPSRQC
# [11] = target: 5-Hydroxytryptamine (Serotonin) Receptor 2A (5-HT2A) (Homo sapiens, UniProt P28223); experiment: Calcium flux secondary messenger assay, antagonist format; format: cell-based; conditions: read-out: IC50 (μM) Antag./Blocker/Inhibitor
# [12] = target: T8, Vascular endothelial growth factor receptor 2 (KDR tyrosine kinase) (VEGFR2) (Homo sapiens, UniProt P35968); experiment: biochemical; conditions: Binding, inhibitor, read-out: IC50 (μM) Antag./Blocker/Inhibitor
# T8 construct: T7 phage fusion (most assays) or DNA tag for qPCR (the remaining kinases); made in house; host or cells: E. coli (BL21-derived, T7 phage display) or HEK-293
# [13] = target: T6, Adrenergic Receptor α1A (ADRA1A); experiment: Calcium flux secondary messenger assay, agonist format; format: cell-based; conditions: read-out: EC50 (μM) Agonist/Opener
# [14] = target: Opioid Receptor Delta 1 (OPRD1) (Homo sapiens, UniProt P41143); experiment: cAMP secondary messenger assay, agonist format; format: cell-based; conditions: read-out: EC50 (μM) Agonist/Opener
# [15] = target: T9, Lymphocyte Cell-Specific Protein-Tyrosine Kinase (Src family) (LCK) (Homo sapiens, UniProt P06239); experiment: Kinase binding assay (KINOMEscan); conditions: inhibitor, read-out: IC50 (μM) Antag./Blocker/Inhibitor
# T9 construct: T7 phage fusion (most assays) or DNA tag for qPCR (the remaining kinases); made in house; host or cells: E. coli (BL21-derived, T7 phage display) or HEK-293
# [16] = target: T3, KvLQT1/minK; experiment: Ion channel assay, opener format; format: cell-based; conditions: read-out: EC50 (μM) Agonist/Opener
# [17] = target: NAV1.5 (tetrodotoxin-resistant voltage-gated sodium channel) (Homo sapiens, UniProt Q14524); experiment: cell-based
# [18] = target: Nicotinic acetylcholine Receptor α4 β2 (nAChR(a4/b2)) (Homo sapiens, UniProt P17787+P43681); experiment: Ion channel assay, opener format; format: cell-based; conditions: read-out: EC50 (μM) Agonist/Opener
# [19] = target: 5-Hydroxytryptamine (Serotonin) Receptor 2B (5-HT2B) (Homo sapiens, UniProt P41595); experiment: Calcium flux secondary messenger assay, antagonist format; format: cell-based; conditions: read-out: IC50 (μM) Antag./Blocker/Inhibitor
# [20] = target: T10, PDE3A (Homo sapiens, UniProt Q14432); experiment: Enzymatic assay PDE3A; format: biochemical; conditions: inhibitor, read-out: IC50 (μM) Antag./Blocker/Inhibitor
# T10 construct: purchased Signal Chem
# [21] = target: Adrenergic Receptor α2A (ADRA2A) (Homo sapiens, UniProt P08913); experiment: cAMP secondary messenger assay, agonist format; format: cell-based; conditions: read-out: EC50 (μM) Agonist/Opener
# [22] = target: T5, Dopamine Receptor D1 (DRD1); experiment: cAMP secondary messenger assay, agonist format; format: cell-based; conditions: read-out: EC50 (μM) Agonist/Opener
# [23] = tested on: Gamma-aminobutyric acid Receptor A (GABAA); experiment: Ion channel assay, blocker format; format: cell-based; conditions: read-out: IC50 (μM) Antag./Blocker/Inhibitor
# [24] = target: T11, 5-Hydroxytryptamine (Serotonin) Receptor 1B (5-HT1B) (Homo sapiens, UniProt P28222); experiment: cAMP secondary messenger assay, antagonist format; format: cell-based; conditions: read-out: IC50 (μM) Antag./Blocker/Inhibitor
# T11 construct: host or cells: cAMP Hunter cell line
# [25] = target: T7, Muscarinic acetylcholine Receptor M1 (CHRM1); experiment: Calcium flux secondary messenger assay, agonist format; format: cell-based; conditions: read-out: EC50 (μM) Agonist/Opener
# [26] = target: Opioid Receptor Mu (OPRM1) (Homo sapiens, UniProt P35372); experiment: cell-based; conditions: cAMP, antagonist, read-out: IC50 (μM) Antag./Blocker/Inhibitor
# Chain of Opioid Receptor Mu (OPRM1) (P35372 whole entry): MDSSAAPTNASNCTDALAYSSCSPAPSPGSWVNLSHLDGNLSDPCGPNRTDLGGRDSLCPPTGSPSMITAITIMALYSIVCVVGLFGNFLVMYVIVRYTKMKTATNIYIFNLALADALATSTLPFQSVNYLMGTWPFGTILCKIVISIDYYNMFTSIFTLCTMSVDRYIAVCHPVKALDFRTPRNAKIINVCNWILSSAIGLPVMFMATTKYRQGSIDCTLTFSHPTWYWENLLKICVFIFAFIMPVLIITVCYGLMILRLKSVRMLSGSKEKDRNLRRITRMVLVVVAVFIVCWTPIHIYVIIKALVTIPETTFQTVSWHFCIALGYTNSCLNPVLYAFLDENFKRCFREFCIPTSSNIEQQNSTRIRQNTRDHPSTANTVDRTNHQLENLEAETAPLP
# [27] = target: T12, 5-Hydroxytryptamine (Serotonin) Receptor 1A (5-HT1A) (Homo sapiens, UniProt P08908); experiment: cAMP secondary messenger assay, agonist format; format: cell-based; conditions: read-out: EC50 (μM) Agonist/Opener
# T12 construct: host or cells: cAMP Hunter cell line
# [28] = target: Endothelin Receptor Type A (EDNRA) (Homo sapiens, UniProt P25101); experiment: Calcium flux secondary messenger assay, antagonist format; format: cell-based; conditions: read-out: IC50 (μM) Antag./Blocker/Inhibitor
# [29] = target: N-methyl-D-aspartate (NMDA) Glutamate Receptor 1A/2B (NMDAR (1A/2B)) (Homo sapiens, UniProt Q05586+Q13224); experiment: Ion channel assay, opener format; format: cell-based; conditions: read-out: EC50 (μM) Agonist/Opener
# Chain of N-methyl-D-aspartate (NMDA) Glutamate Receptor 1A/2B (NMDAR (1A/2B)) (Q13224 27-1484, other chains not shown): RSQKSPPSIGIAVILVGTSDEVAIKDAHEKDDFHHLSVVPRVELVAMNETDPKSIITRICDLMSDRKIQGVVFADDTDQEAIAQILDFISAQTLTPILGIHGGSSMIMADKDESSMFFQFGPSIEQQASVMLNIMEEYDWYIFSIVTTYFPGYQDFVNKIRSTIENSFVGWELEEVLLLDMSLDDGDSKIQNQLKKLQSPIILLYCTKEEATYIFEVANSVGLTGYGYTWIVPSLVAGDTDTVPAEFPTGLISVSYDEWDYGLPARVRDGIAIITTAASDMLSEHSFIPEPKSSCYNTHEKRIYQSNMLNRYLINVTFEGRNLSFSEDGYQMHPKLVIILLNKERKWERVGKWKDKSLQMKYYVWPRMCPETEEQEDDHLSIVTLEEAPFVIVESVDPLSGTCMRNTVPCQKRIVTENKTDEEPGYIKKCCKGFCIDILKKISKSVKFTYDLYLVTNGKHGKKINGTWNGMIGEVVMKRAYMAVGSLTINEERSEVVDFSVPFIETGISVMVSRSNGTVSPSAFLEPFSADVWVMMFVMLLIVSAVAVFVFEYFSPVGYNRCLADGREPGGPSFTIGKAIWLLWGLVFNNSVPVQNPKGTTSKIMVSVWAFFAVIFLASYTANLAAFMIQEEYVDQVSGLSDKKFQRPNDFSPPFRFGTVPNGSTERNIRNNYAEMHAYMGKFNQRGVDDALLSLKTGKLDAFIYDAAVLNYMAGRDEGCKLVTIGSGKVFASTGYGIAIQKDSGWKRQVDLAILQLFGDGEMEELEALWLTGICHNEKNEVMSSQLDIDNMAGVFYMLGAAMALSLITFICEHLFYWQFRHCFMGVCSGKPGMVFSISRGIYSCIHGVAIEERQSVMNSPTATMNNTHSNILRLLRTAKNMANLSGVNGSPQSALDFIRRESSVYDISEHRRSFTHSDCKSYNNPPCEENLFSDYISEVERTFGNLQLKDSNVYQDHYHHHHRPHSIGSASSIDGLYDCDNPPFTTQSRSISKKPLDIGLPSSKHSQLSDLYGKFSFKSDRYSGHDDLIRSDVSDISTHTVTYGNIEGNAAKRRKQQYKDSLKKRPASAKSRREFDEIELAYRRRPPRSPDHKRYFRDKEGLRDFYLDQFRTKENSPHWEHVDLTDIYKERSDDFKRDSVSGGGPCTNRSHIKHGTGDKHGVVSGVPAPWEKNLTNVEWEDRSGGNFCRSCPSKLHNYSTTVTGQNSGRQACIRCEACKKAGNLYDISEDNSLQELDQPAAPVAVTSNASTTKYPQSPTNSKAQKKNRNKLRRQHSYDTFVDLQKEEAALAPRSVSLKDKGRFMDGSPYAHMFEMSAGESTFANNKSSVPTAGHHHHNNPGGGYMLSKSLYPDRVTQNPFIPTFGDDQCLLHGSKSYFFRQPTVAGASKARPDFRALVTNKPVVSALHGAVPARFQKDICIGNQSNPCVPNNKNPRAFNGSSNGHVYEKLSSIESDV
# [30] = target: T1, Dopamine Receptor D2 (DRD2S); experiment: cAMP secondary messenger assay, agonist format; format: cell-based; conditions: read-out: EC50 (μM) Agonist/Opener
# [31] = target: T4, Histamine Receptor H2 (HRH2); experiment: cAMP secondary messenger assay, antagonist format; format: cell-based; conditions: read-out: IC50 (μM) Antag./Blocker/Inhibitor
compound,measurement,setting,value
"CN(C)CCc1ccn2ccccc12 [28-12 oxalate, 2-(indolizin-1-yl)-N, N-dimethylethan-1-amine oxalate]",EC50,[1],> 30 µM
same,IC50,[2],22.3 µM
same,EC50,[3],> 30 µM
same,EC50,[4],> 30 µM
same,IC50,[5],> 30 µM
same,EC50,[6],> 30 µM
same,IC50,[7],> 30 µM
same,EC50,[8],> 30 µM
same,IC50,[9],2.31 µM
same,IC50,[10],> 30 µM
same,IC50,[11],1.08 µM
same,IC50,[12],> 30 µM
same,EC50,[13],> 30 µM
same,EC50,[14],> 30 µM
same,IC50,[15],> 30 µM
same,EC50,[16],> 30 µM
same,IC50,[17],> 30 µM
same,EC50,[18],> 30 µM
same,IC50,[19],3.28 µM
same,IC50,[20],> 30 µM
same,EC50,[21],> 30 µM
same,EC50,[22],> 30 µM
same,IC50,[23],> 30 µM
same,IC50,[24],> 30 µM
same,EC50,[25],> 30 µM
same,IC50,[26],> 30 µM
same,EC50,[27],> 30 µM
same,IC50,[28],> 30 µM
same,EC50,[29],> 30 µM
same,EC50,[30],> 30 µM
same,IC50,[31],> 30 µM

# — patent US20250042900A1 (priority 2022, published 2025)
